Key:
glucocorticoid receptor = target: T1, glucocorticoid receptor (Homo sapiens, UniProt P04150); assay: Activity assay of glucocorticoid receptor reporter gene GRE; format: cell-based; settings: HEK293 cells transfected with pGL5 and pBIND-GR; 24 h; Dual-Glo luciferase
T1 construct: host or cells: HEK293
T1 sequence (P04150 1-777): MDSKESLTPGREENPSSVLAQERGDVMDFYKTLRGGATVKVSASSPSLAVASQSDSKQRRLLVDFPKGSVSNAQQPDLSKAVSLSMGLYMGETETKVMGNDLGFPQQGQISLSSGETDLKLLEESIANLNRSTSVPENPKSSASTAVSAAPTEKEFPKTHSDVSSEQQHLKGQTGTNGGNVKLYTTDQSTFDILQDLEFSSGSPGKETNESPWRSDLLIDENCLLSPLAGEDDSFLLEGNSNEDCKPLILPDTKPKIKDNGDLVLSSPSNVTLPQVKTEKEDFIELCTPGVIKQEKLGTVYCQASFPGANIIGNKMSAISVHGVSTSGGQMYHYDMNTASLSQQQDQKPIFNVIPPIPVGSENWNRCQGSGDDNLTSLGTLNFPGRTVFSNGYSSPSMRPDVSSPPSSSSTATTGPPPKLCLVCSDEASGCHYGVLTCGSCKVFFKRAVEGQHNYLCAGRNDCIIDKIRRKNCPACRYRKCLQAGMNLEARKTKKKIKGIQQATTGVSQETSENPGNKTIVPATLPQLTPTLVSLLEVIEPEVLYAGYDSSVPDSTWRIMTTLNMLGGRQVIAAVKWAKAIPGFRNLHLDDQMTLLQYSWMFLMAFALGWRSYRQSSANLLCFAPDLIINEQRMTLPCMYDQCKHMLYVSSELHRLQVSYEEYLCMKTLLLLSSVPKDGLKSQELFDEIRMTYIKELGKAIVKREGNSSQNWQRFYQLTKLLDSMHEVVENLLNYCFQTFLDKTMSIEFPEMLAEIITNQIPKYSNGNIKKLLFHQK
Procedure: (§1) HEK293 cells were cultured in DMEM+10% FBS medium in a carbon dioxide incubator humidified at 37° C. with 5% carbon dioxide.
HEK293 cells were digested with trypsin, and the HEK293 cell resuspension was adjusted to 200,000 cell/mL in medium (96 well plate: 100 μL/well).
Transfection reagent mixtures were prepared according to Tables 5a and 5b below, mixed well and left to stand at room temperature for 20 min.
(§2) The prepared transfection mixtures were added to 10 mL of the cell density-adjusted resuspension, mixed well by turning the mixtures upside down, and seeded into a 96-well plate at a volume of 100 μL/well.
The 96-well plate was incubated in a humidified incubator at 37° C. with 5% carbon dioxide for 24 h.
The test plate was placed back into the incubator and incubated for 24 h.
(§3) The test plate was detected using the Dual-Glo Luciferase Assay System kit from Promega, and the fluorescence signal of Firefly Luciferase and the fluorescence signal of Renilla Luciferase were read using Enspire, respectively.
The final measurement value was a normalized value “F/R” obtained by dividing the Firefly Luciferase fluorescent signal by the Renilla Luciferase fluorescent signal.
The data were copied and pasted into Excel, and the activation rate was obtained through an equation.
The data were imported into MS Excel and subjected to curve fitting by using XLFit excel add-in version 5.4.0.8 to obtain an EC50 value.
(§4) Y is the agonism and X is the concentration of the compound.

DBA/1J mice = assay: Bovine type II collagen mixed adjuvant-induced DBA/1 mouse arthritis (CIA) model; format: in vivo; settings: Table 10-2; 0.2 mg/kg p.o.; mean
Procedure: Example 6: Assay of Biological Activity of Bovine Type II Collagen Mixed Adjuvant-Induced DBA/1 Mouse Arthritis Model
The potency of the ligand-drug conjugates (ADCs) of the present application was evaluated in a bovine collagen-induced arthritis (CIA) model.
Male DBA/1J mice were obtained from Jackson Labs. The mice were used at 6-8 weeks of age. All animals were given ad libitum access to food and water under a 12-hour light/dark cycle at constant temperature and humidity.
Bovine collagen (Chondrex, Inc. Cat: 20021) was dissolved in 0.1 M acetic acid and stored overnight in a 2-8 C refrigerator at a collagen concentration of 8 mg/mL, and an equal volume of CFA (complete Freund's adjuvant, Difco, Laurence, KS) was added into the collagen solution and emulsified in a high speed homogenizer to make an emulsion. On Day 0, animals in need of immunization were anesthetized with 2%-5% isoflurane and male DBA/J mice were immunized once with a single subcutaneous injection of 50 μL collagen/CFA emulsion at the tail root of 2-3 cm from the body. Three weeks later, namely on Day 21, the tail root was immunized twice with the same volume of collagen emulsion by the same injection method. After the second immunization, 120 animals with an average score of about 2 for the limb arthritis were selected and randomly grouped. The animals were treated by a single intraperitoneal injection of test reagent according to the experimental design after grouping. For the dexamethasone (Sphsine) treatment group, the drug was administered the day after grouping until the end of the trial. The extremities of each group were observed twice weekly for the onset of arthritis from the time of the second immunization, and the observation was continued until the end of the trial.
Scoring according to the degree of lesion (redness and swelling) was performed on a scale of 0-4 points, with a maximum score of 4 for each limb and a total maximum score of 16 for each animal's limbs. The scoring criteria are as follows: 0 points, no redness and swelling; 1 point, 1-2 red and swollen interphalangeal joints; 2 points, 3-4 red and swollen interphalangeal joints; 3 points, more than 4 red and swollen interphalangeal joints; 4 points, severe redness and swelling in toes or fingers to ankle joints or wrist joints. For joint swelling, ankle thickness of hind paw of each animal was measured with a screw micrometer before one immunization. Since the second immunization, measurements were performed 2 times per week, and changes in ankle thickness before and after the immunization were compared. After the trial was completed, all animals were anesthetized with 2-5% isoflurane and then euthanized by exsanguination.
Score AUC: area under the curve for arthritis score. The results are shown in Tables 10-1 and 10-2 and FIGS. 3a-3c.

GR = target: T2, GR (Homo sapiens, UniProt P04150); assay: GR luciferase reporter gene elution experiment; format: cell-based; settings: supernatant removed and washed, then 24 h; for Elution time (Act %) 15 min: incubation 15 min; for Elution time (Act %) 30 min: incubation 30 min; for Elution time (Act %) 1 h: incubation 1 h; for Elution time (Act %) 2 h: incubation 2 h; for Elution time (Act %) 4 h: incubation 4 h
T2 construct: host or cells: HEK293
T2 sequence (P04150 1-777): T1 sequence (P04150 1-777)
Procedure: The compounds of the present application were evaluated for their ability to continue activation upon binding to GR.
as §1
• 1) HEK293 cells were digested with trypsin, and the HEK293 cell resuspension was adjusted to 200,000 cell/mL in medium (96 well plate: 100 μL/well). • 2) Transfection reagent mixtures were prepared according to the table below, mixed well and left to stand at room temperature for 20 min.
as §2, with “• 3) The” for “The”, “μL/well. • 4) The 96-well plate was incubated in a humidified incubator at 37° C. with 5% carbon dioxide for 24 h.” for “μL/well.”
as §3
5. Data Processing • 1) The final measurement value was a normalized value “F/R” obtained by dividing the Firefly Luciferase fluorescent signal by the Renilla Luciferase fluorescent signal. • 2) The data were copied and pasted into Excel, and the activation rate was obtained through an equation.
[formula] • 3) The data were imported into MS Excel and subjected to curve fitting by using XLFit excel add-in version 5.4.0.8 to obtain an EC50 value.
as §4

## C[C@]12C=CC(=O)C=C1CC[C@@H]1[C@@H]2[C@@H](O)C[C@@]2(C)[C@H]1C[C@H]1O[C@@H](c3ccc(Cc4ccc(N)cc4)s3)O[C@]12C(=O)CO [Compound 15]
Glucocorticoid receptor
  EC50: 0.63 nM

## C[C@]12C=CC(=O)C=C1CC[C@@H]1[C@@H]2[C@@H](O)C[C@@]2(C)[C@H]1C[C@H]1O[C@@H](c3cnc(Cc4cccc(N)c4)s3)O[C@]12C(=O)CO [Compound 28, reference compound]
Glucocorticoid receptor
  EC50: 10 nM

## C[C@]12C=CC(=O)C=C1CC[C@@H]1[C@@H]2[C@@H](O)C[C@@]2(C)[C@H]1C[C@H]1O[C@H](c3cnc(Cc4cccc(N)c4)s3)O[C@]12C(=O)CO [Compound 28S]
Glucocorticoid receptor
  EC50: > 1000 nM

## CC12C=CC(=O)C=C1CCC1C2C(O)CC2(C)C1CC1OC(c3ccc(Oc4cccc(N)c4)cn3)OC12C(=O)CO [Compound 19, (6aR,6bS,7S,8aS,8bS,10R,11aR,12aS,12bS)-10-(5-(3-aminophenoxy)pyridin-2-yl)-7-hydroxy-8b-(2-hydroxyacetyl)-6a,8a-dimethyl-1,2,6a,6b,7,8,8a,8b,11a,12,12a,12b-dodecahydro-4H-naphtho[2′,1′:4,5]indeno[1,2-d][1,3]dioxol-4-one]
Glucocorticoid receptor
  EC50: > 1000 nM

## C[C@]12C=CC(=O)C=C1CC[C@H]1[C@@H]3C[C@H]4O[C@@H](c5ccn(Cc6cccc(N)c6)c5)O[C@@]4(C(=O)CO)[C@@]3(C)C[C@H](O)[C@@]12F [Compound 7]
Glucocorticoid receptor
  EC50: 0.13 nM

## C[C@@H]1C[C@H]2[C@@H]3CCC4=CC(=O)C=C[C@]4(C)[C@@]3(F)[C@@H](O)C[C@]2(C)[C@@]1(O)C(=O)CO [Dexamethasone, dexamethasone]
DBA/1J mice
  Arthritis score AUC (area under the curve for arthritis score): 24.50
  Arthritis score D 0: 0.00
  Arthritis score D 21: 0.00
  Arthritis score D 24: 0.00
  Arthritis score D 28: 0.00
  Arthritis score D 31: 2.10
  Arthritis score D 35: 2.90
  Arthritis score Day 38: 1.30
  Arthritis score Day 42: 0.50
  Arthritis score Day 45: 0.20
  Arthritis score Day 49: 0.00
  Arthritis score Day 52: 0.00
  Arthritis score Day 56: 0.00
GR
  Elution time (Act %) 15 min: 9.4%
  Elution time (Act %) 30 min: 10.0%
  Elution time (Act %) 1 h: 7.2%
  Elution time (Act %) 2 h: 6.2%
  Elution time (Act %) 4 h: 31.9%

## C[C@]12C=CC(=O)C=C1CC[C@H]1[C@@H]3C[C@H]4O[C@@H](c5ccn(Cc6ccc(N)cc6)c5)O[C@@]4(C(=O)CO)[C@@]3(C)C[C@H](O)[C@@]12F [Compound 8]
Glucocorticoid receptor
  EC50: 0.07 nM

## C[C@]12C=CC(=O)C=C1CC[C@@H]1[C@@H]2[C@@H](O)C[C@@]2(C)[C@H]1C[C@H]1O[C@@H](c3cc(Cc4cccc(N)c4)cs3)O[C@]12C(=O)CO [Compound 18]
Glucocorticoid receptor
  EC50: 0.28 nM

## C[C@]12C=CC(=O)C=C1CC[C@@H]1[C@@H]2[C@@H](O)C[C@@]2(C)[C@H]1C[C@H]1O[C@@H](c3coc(Cc4cccc(N)c4)c3)O[C@]12C(=O)CO [Compound 20]
Glucocorticoid receptor
  EC50: > 1000 nM

## C[C@]12C=CC(=O)C=C1CC[C@H]1[C@@H]3C[C@H]4O[C@@H](c5ccc(Cc6ccc(N)cc6)s5)O[C@@]4(C(=O)CO)[C@@]3(C)C[C@H](O)[C@@]12F [Compound 17]
Glucocorticoid receptor
  EC50: 0.33 nM
GR
  Elution time (Act %) 15 min: 1.7%
  Elution time (Act %) 30 min: 0.7%
  Elution time (Act %) 1 h: 1.3%
  Elution time (Act %) 2 h: 2.9%
  Elution time (Act %) 4 h: 9.7%

## C[C@]12C=CC(=O)C=C1CC[C@@H]1[C@@H]2[C@@H](O)C[C@@]2(C)[C@H]1C[C@H]1O[C@@H](c3ccc(Cc4cccc(N)c4)s3)O[C@]12C(=O)CO [Compound 11]
Glucocorticoid receptor
  EC50: 0.37 nM
